Results: PMC7311426, “An amphipathic peptide with antibiotic activity against multidrug-resistant Gram-negative bacteria” (Nature Communications, 2020)

Experiments:
Assay in all cases: microbe, parasite or virus in culture
[1] = tested on: E. coli
Summary of the method: (§1)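 MICs were scored by eye after 18-20 h static incubation at 37 °C, with bacteria at 5 × 10^5 CFU mL^−1 in MHB. Peptides were serially diluted 2-fold over 12 points, top 128 or 64 μg mL^−1. CAMHB (CLSI) and 1% agarose-MHB variants were also run, at least six replicates.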

[2] = tested on: K. pneumoniae
Summary of the method: as §1

[3] = tested on: P. aeruginosa
Summary of the method: as §1

Measured: MIC, broth microdilution

NC[C@H]1O[C@H](O[C@H]2[C@H](O)[C@@H](O[C@H]3O[C@H](CO)[C@@H](O)[C@H](N)[C@H]3O)[C@H](N)C[C@@H]2N)[C@H](N)C[C@@H]1O [TOB]
8 µg/mL: [1]; E. coli AUD172 parent strain not exposed to drug | [1]; E. coli AUD172 spontaneous mutant, AA139 selection 4X, plate 2, colony 2, drug-free passage 1
0.5 µg/mL: [2]; K. pneumoniae 3010 parent strain not exposed to drug | [2]; K. pneumoniae 3010 spontaneous mutant, AA139 selection 8X, plate 1, colony 1, drug-free passage 1 | [3]; P. aeruginosa ATCC 27853 parent strain not exposed to drug | [3]; P. aeruginosa ATCC 27853 spontaneous mutant, AA139 selection 4X, plate 1, colony 1, drug-free passage 5 | [3]; P. aeruginosa ATCC 27853 spontaneous mutant, AA139 selection 4X, plate 1, colony 5, drug-free passage 5 | [3]; P. aeruginosa ATCC 27853 spontaneous mutant, AA139 selection 4X, plate 1, colony 6, drug-free passage 5 | [3]; P. aeruginosa ATCC 27853 spontaneous mutant, AA139 selection 4X, plate 2, colony 3, drug-free passage 5 | [3]; P. aeruginosa ATCC 27853 spontaneous mutant, AA139 selection 4X, plate 2, colony 4, drug-free passage 5 | [3]; P. aeruginosa ATCC 27853 spontaneous mutant, AA139 selection 8X, plate 1, colony 1, drug-free passage 5 | [3]; P. aeruginosa ATCC 27853 spontaneous mutant, AA139 selection 8X, plate 1, colony 2, drug-free passage 5 | [3]; P. aeruginosa ATCC 27853 spontaneous mutant, AA139 selection 8X, plate 1, colony 3, drug-free passage 5 | [3]; P. aeruginosa ATCC 27853 spontaneous mutant, AA139 selection 8X, plate 1, colony 4, drug-free passage 5 | [3]; P. aeruginosa UNT 138-1 parent strain not exposed to drug | [3]; P. aeruginosa UNT 138-1 spontaneous mutant, AA139 selection 4X, plate 1, colony 3, drug-free passage 5 | [3]; P. aeruginosa UNT 138-1 spontaneous mutant, AA139 selection 4X, plate 1, colony 5, drug-free passage 5 | [3]; P. aeruginosa UNT 138-1 spontaneous mutant, AA139 selection 4X, plate 1, colony 6, drug-free passage 5 | [3]; P. aeruginosa UNT 138-1 spontaneous mutant, AA139 selection 4X, plate 2, colony 3, drug-free passage 5 | [3]; P. aeruginosa UNT 138-1 spontaneous mutant, AA139 selection 4X, plate 2, colony 5, drug-free passage 5 | [3]; P. aeruginosa UNT 138-1 spontaneous mutant, AA139 selection 8X, plate 1, colony 1, drug-free passage 1 | [3]; P. aeruginosa UNT 138-1 spontaneous mutant, AA139 selection 8X, plate 1, colony 2, drug-free passage 5 | [3]; P. aeruginosa UNT 138-1 spontaneous mutant, AA139 selection 8X, plate 1, colony 4, drug-free passage 5
0.25 µg/mL: [2]; K. pneumoniae 3010 spontaneous mutant, AA139 selection 4X, plate 1, colony 1, drug-free passage 5 | [2]; K. pneumoniae 3010 spontaneous mutant, AA139 selection 8X, plate 1, colony 1, drug-free passage 5
16, 16 µg/mL: [2]; K. pneumoniae ST258 spontaneous mutant, AA139 selection 4X, plate 1, colony 1, drug-free passage 1 | [2]; K. pneumoniae ST258 spontaneous mutant, AA139 selection 4X, plate 1, colony 1, drug-free passage 5
16 µg/mL: [1]; E. coli AUD172 spontaneous mutant, AA139 selection 4X, plate 2, colony 2, drug-free passage 5 | [2]; K. pneumoniae ST258 parent strain not exposed to drug
1 µg/mL: [2]; K. pneumoniae 3010 spontaneous mutant, AA139 selection 4X, plate 1, colony 1, drug-free passage 1 | [3]; P. aeruginosa ATCC 27853 spontaneous mutant, AA139 selection 4X, plate 1, colony 1, drug-free passage 1 | [3]; P. aeruginosa ATCC 27853 spontaneous mutant, AA139 selection 4X, plate 1, colony 5, drug-free passage 1 | [3]; P. aeruginosa ATCC 27853 spontaneous mutant, AA139 selection 4X, plate 1, colony 6, drug-free passage 1 | [3]; P. aeruginosa ATCC 27853 spontaneous mutant, AA139 selection 4X, plate 2, colony 3, drug-free passage 1 | [3]; P. aeruginosa ATCC 27853 spontaneous mutant, AA139 selection 4X, plate 2, colony 4, drug-free passage 1 | [3]; P. aeruginosa ATCC 27853 spontaneous mutant, AA139 selection 8X, plate 1, colony 1, drug-free passage 1 | [3]; P. aeruginosa ATCC 27853 spontaneous mutant, AA139 selection 8X, plate 1, colony 2, drug-free passage 1 | [3]; P. aeruginosa ATCC 27853 spontaneous mutant, AA139 selection 8X, plate 1, colony 3, drug-free passage 1 | [3]; P. aeruginosa ATCC 27853 spontaneous mutant, AA139 selection 8X, plate 1, colony 4, drug-free passage 1 | [3]; P. aeruginosa UNT 138-1 spontaneous mutant, AA139 selection 4X, plate 1, colony 3, drug-free passage 1 | [3]; P. aeruginosa UNT 138-1 spontaneous mutant, AA139 selection 4X, plate 1, colony 5, drug-free passage 1 | [3]; P. aeruginosa UNT 138-1 spontaneous mutant, AA139 selection 4X, plate 1, colony 6, drug-free passage 1 | [3]; P. aeruginosa UNT 138-1 spontaneous mutant, AA139 selection 4X, plate 2, colony 3, drug-free passage 1 | [3]; P. aeruginosa UNT 138-1 spontaneous mutant, AA139 selection 4X, plate 2, colony 5, drug-free passage 1 | [3]; P. aeruginosa UNT 138-1 spontaneous mutant, AA139 selection 8X, plate 1, colony 2, drug-free passage 1 | [3]; P. aeruginosa UNT 138-1 spontaneous mutant, AA139 selection 8X, plate 1, colony 4, drug-free passage 1
1, 1 µg/mL: [3]; P. aeruginosa UNT 138-1 spontaneous mutant, AA139 selection 4X, plate 1, colony 1, drug-free passage 1 | [3]; P. aeruginosa UNT 138-1 spontaneous mutant, AA139 selection 4X, plate 1, colony 1, drug-free passage 5 | [3]; P. aeruginosa UNT 138-1 spontaneous mutant, AA139 selection 4X, plate 2, colony 1, drug-free passage 1 | [3]; P. aeruginosa UNT 138-1 spontaneous mutant, AA139 selection 4X, plate 2, colony 1, drug-free passage 5
0.5, 0.5 µg/mL: [3]; P. aeruginosa ATCC 27853 spontaneous mutant, AA139 selection 4X, plate 1, colony 2, drug-free passage 1 | [3]; P. aeruginosa ATCC 27853 spontaneous mutant, AA139 selection 4X, plate 1, colony 2, drug-free passage 5 | [3]; P. aeruginosa ATCC 27853 spontaneous mutant, AA139 selection 4X, plate 1, colony 3, drug-free passage 1 | [3]; P. aeruginosa ATCC 27853 spontaneous mutant, AA139 selection 4X, plate 1, colony 3, drug-free passage 5 | [3]; P. aeruginosa ATCC 27853 spontaneous mutant, AA139 selection 4X, plate 1, colony 4, drug-free passage 1 | [3]; P. aeruginosa ATCC 27853 spontaneous mutant, AA139 selection 4X, plate 1, colony 4, drug-free passage 5 | [3]; P. aeruginosa ATCC 27853 spontaneous mutant, AA139 selection 4X, plate 2, colony 1, drug-free passage 1 | [3]; P. aeruginosa ATCC 27853 spontaneous mutant, AA139 selection 4X, plate 2, colony 1, drug-free passage 5 | [3]; P. aeruginosa ATCC 27853 spontaneous mutant, AA139 selection 4X, plate 2, colony 2, drug-free passage 1 | [3]; P. aeruginosa ATCC 27853 spontaneous mutant, AA139 selection 4X, plate 2, colony 2, drug-free passage 5 | [3]; P. aeruginosa ATCC 27853 spontaneous mutant, AA139 selection 8X, plate 1, colony 5, drug-free passage 1 | [3]; P. aeruginosa ATCC 27853 spontaneous mutant, AA139 selection 8X, plate 1, colony 5, drug-free passage 5 | [3]; P. aeruginosa UNT 138-1 spontaneous mutant, AA139 selection 4X, plate 1, colony 2, drug-free passage 1 | [3]; P. aeruginosa UNT 138-1 spontaneous mutant, AA139 selection 4X, plate 1, colony 2, drug-free passage 5 | [3]; P. aeruginosa UNT 138-1 spontaneous mutant, AA139 selection 4X, plate 1, colony 4, drug-free passage 1 | [3]; P. aeruginosa UNT 138-1 spontaneous mutant, AA139 selection 4X, plate 1, colony 4, drug-free passage 5 | [3]; P. aeruginosa UNT 138-1 spontaneous mutant, AA139 selection 4X, plate 1, colony 7, drug-free passage 1 | [3]; P. aeruginosa UNT 138-1 spontaneous mutant, AA139 selection 4X, plate 1, colony 7, drug-free passage 5 | [3]; P. aeruginosa UNT 138-1 spontaneous mutant, AA139 selection 4X, plate 2, colony 2, drug-free passage 1 | [3]; P. aeruginosa UNT 138-1 spontaneous mutant, AA139 selection 4X, plate 2, colony 2, drug-free passage 5 | [3]; P. aeruginosa UNT 138-1 spontaneous mutant, AA139 selection 4X, plate 2, colony 4, drug-free passage 1 | [3]; P. aeruginosa UNT 138-1 spontaneous mutant, AA139 selection 4X, plate 2, colony 4, drug-free passage 5 | [3]; P. aeruginosa UNT 138-1 spontaneous mutant, AA139 selection 4X, plate 2, colony 6, drug-free passage 1 | [3]; P. aeruginosa UNT 138-1 spontaneous mutant, AA139 selection 4X, plate 2, colony 6, drug-free passage 5 | [3]; P. aeruginosa UNT 138-1 spontaneous mutant, AA139 selection 4X, plate 2, colony 7, drug-free passage 1 | [3]; P. aeruginosa UNT 138-1 spontaneous mutant, AA139 selection 4X, plate 2, colony 7, drug-free passage 5 | [3]; P. aeruginosa UNT 138-1 spontaneous mutant, AA139 selection 8X, plate 1, colony 3, drug-free passage 1 | [3]; P. aeruginosa UNT 138-1 spontaneous mutant, AA139 selection 8X, plate 1, colony 3, drug-free passage 5 | [3]; P. aeruginosa UNT 138-1 spontaneous mutant, AA139 selection 8X, plate 1, colony 5, drug-free passage 1 | [3]; P. aeruginosa UNT 138-1 spontaneous mutant, AA139 selection 8X, plate 1, colony 5, drug-free passage 5 | [3]; P. aeruginosa UNT 138-1 spontaneous mutant, AA139 selection 8X, plate 2, colony 1, drug-free passage 1 | [3]; P. aeruginosa UNT 138-1 spontaneous mutant, AA139 selection 8X, plate 2, colony 1, drug-free passage 5
2 µg/mL: [3]; P. aeruginosa UNT 138-1 spontaneous mutant, AA139 selection 8X, plate 1, colony 1, drug-free passage 5
